# Laboratory results as given in patent US10392368B2, “Pyrazolo and triazolo bicyclic compounds as JAK kinase inhibitors” (THERAVANCE BIOPHARMA R&D IP, LLC, priority 2017, dated 2019).
# Read-outs that look alike come from different tables or passages of the source.
# Tests used:
# Tyk2 = biological target: T1, Tyk2 (Homo sapiens, UniProt P29597); test: Biochemical Tyk2 kinase assay (LanthaScreen); conditions: for Ki: read-out: Tyk 2 (pKi) (converted)
# T1 construct: GST; purchased Life Technologies
# T1 sequence (P29597 whole entry): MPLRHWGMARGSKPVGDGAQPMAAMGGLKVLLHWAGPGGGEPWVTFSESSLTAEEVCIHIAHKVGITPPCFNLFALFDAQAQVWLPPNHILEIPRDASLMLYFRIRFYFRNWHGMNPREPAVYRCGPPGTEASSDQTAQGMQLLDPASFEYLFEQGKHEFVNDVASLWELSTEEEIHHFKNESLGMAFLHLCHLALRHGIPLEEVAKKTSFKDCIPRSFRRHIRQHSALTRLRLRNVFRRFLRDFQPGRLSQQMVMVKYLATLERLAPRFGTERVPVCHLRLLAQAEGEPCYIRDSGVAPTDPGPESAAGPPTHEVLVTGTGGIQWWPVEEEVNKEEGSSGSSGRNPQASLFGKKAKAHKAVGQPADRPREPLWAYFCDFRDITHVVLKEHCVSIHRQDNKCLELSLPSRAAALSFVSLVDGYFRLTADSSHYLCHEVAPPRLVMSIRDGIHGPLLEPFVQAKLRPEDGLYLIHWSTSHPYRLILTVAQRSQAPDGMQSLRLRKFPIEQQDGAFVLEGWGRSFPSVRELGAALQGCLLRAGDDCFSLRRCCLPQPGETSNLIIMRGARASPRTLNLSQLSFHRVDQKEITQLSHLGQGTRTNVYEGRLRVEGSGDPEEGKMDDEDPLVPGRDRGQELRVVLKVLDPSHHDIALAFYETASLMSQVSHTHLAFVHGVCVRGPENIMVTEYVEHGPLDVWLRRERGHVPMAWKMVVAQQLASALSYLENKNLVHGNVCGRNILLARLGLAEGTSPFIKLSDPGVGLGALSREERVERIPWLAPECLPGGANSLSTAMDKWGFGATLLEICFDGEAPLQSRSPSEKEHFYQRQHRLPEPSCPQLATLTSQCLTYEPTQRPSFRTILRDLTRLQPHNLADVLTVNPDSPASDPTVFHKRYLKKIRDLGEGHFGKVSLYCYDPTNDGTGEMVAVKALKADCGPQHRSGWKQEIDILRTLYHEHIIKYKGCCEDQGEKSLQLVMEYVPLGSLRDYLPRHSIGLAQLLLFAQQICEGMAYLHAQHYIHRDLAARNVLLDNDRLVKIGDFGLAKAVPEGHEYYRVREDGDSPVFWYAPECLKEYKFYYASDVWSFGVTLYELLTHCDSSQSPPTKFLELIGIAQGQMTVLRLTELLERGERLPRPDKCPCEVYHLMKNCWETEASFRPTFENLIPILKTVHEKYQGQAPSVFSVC
# How it was run: (§1)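 GST-tagged JAK enzyme and GFP-STAT1 peptide preincubated with compound 1 h, then ATP added; 1 h kinase reaction at ambient temperature, pH 7.5 HEPES/MgCl2 buffer, 1% DMSO. Tb-anti-pSTAT1 (pTyr701) TR-FRET, 520/495 nm ratio; IC50 from 4-parameter fit, converted to pKi via Cheng-Prusoff.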
# [1] = system: IL-2 stimulated pSTAT5 in Tall-1 T cells; test: Cellular JAK3 potency assay: inhibition of IL-2 stimulated pSTAT5 in Tall-1 T cells; assay type: cell-based, human; conditions: for IC50: Homo sapiens, read-out: Tall-1 (pIC50) (converted)
# How it was run: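 Inhibition of IL-2-induced pSTAT5 was quantified by AlphaLisa in Tall-1 cell lysates. Compound exposure lasted 1 h before 30 min stimulation with 300 ng/ml IL-2 final.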
# JAK3 = biological target: T2, JAK3 (Homo sapiens, UniProt P52333); test: Biochemical JAK3 kinase assay (LanthaScreen); set-up: GST; purchased Life Technologies; conditions: for Ki: read-out: JAK 3 (pKi) (converted)
# T2 sequence (P52333 1-1124): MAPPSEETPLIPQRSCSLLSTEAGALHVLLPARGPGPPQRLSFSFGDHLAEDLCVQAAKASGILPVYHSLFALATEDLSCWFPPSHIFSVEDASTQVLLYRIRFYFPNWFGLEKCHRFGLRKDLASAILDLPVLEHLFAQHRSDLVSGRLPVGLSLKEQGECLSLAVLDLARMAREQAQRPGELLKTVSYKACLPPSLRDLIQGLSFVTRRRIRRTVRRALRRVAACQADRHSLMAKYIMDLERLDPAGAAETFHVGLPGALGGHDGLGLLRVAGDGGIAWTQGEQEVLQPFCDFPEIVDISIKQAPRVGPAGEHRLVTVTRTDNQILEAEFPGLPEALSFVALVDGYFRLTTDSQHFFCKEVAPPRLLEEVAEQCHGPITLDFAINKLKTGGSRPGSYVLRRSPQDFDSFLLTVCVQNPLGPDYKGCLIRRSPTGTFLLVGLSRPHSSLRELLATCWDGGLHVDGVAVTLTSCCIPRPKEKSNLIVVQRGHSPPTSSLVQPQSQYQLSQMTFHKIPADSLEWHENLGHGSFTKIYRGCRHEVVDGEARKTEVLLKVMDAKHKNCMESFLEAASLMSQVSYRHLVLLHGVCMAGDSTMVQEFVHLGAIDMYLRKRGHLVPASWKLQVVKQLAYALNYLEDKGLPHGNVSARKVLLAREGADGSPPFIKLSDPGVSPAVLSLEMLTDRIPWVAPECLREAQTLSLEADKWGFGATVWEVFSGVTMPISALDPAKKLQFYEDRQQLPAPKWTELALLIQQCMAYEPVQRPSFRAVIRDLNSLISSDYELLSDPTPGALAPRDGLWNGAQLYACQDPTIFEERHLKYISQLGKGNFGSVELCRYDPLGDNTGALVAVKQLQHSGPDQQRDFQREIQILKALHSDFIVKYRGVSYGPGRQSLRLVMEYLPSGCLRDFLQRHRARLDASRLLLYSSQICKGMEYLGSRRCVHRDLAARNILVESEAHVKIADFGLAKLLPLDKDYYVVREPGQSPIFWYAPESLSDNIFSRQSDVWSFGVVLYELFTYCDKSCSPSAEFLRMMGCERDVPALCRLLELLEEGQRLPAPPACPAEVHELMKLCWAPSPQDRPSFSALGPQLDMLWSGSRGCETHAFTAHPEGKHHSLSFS
# How it was run: as §1
# JAK1 = biological target: T3, JAK1 (Homo sapiens, UniProt P23458); test: Biochemical JAK1 kinase assay (LanthaScreen); conditions: for Ki: read-out: JAK 1 (pKi) (converted)
# T3 construct: GST; purchased Life Technologies
# T3 sequence (P23458 whole entry): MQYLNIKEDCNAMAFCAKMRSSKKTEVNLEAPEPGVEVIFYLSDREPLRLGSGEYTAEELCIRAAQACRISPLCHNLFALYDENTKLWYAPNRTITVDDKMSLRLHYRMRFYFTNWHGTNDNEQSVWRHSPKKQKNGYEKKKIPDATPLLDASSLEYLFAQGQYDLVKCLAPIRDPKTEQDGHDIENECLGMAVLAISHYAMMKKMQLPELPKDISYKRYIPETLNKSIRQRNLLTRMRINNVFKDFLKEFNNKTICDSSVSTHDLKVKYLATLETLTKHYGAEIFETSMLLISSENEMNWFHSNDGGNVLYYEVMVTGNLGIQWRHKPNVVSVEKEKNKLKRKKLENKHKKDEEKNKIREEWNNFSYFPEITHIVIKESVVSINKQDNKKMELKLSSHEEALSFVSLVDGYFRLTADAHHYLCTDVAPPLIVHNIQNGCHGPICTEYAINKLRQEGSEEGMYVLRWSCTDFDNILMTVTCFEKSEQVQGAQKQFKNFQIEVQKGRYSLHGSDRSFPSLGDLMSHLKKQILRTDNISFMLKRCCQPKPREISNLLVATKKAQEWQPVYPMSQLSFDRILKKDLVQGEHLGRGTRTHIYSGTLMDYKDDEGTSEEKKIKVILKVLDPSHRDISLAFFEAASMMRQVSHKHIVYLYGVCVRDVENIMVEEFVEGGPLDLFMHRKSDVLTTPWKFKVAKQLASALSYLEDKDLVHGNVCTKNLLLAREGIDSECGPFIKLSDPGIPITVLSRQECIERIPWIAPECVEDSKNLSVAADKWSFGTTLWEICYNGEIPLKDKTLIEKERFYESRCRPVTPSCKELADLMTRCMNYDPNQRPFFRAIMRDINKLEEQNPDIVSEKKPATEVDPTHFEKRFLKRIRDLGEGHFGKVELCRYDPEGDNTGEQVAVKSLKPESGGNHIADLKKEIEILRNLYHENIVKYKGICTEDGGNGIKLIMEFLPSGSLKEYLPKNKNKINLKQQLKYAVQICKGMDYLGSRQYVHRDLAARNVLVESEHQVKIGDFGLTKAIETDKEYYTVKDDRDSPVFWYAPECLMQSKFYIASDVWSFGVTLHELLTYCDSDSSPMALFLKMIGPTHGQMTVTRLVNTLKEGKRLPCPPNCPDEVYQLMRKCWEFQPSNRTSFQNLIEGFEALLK
# How it was run: as §1
# JAK2 = biological target: T4, JAK2 (Homo sapiens, UniProt O60674); test: Biochemical JAK2 kinase assay (LanthaScreen); conditions: for Ki: read-out: JAK 2 (pKi) (converted)
# T4 construct: GST; purchased Life Technologies
# T4 sequence (O60674 whole entry): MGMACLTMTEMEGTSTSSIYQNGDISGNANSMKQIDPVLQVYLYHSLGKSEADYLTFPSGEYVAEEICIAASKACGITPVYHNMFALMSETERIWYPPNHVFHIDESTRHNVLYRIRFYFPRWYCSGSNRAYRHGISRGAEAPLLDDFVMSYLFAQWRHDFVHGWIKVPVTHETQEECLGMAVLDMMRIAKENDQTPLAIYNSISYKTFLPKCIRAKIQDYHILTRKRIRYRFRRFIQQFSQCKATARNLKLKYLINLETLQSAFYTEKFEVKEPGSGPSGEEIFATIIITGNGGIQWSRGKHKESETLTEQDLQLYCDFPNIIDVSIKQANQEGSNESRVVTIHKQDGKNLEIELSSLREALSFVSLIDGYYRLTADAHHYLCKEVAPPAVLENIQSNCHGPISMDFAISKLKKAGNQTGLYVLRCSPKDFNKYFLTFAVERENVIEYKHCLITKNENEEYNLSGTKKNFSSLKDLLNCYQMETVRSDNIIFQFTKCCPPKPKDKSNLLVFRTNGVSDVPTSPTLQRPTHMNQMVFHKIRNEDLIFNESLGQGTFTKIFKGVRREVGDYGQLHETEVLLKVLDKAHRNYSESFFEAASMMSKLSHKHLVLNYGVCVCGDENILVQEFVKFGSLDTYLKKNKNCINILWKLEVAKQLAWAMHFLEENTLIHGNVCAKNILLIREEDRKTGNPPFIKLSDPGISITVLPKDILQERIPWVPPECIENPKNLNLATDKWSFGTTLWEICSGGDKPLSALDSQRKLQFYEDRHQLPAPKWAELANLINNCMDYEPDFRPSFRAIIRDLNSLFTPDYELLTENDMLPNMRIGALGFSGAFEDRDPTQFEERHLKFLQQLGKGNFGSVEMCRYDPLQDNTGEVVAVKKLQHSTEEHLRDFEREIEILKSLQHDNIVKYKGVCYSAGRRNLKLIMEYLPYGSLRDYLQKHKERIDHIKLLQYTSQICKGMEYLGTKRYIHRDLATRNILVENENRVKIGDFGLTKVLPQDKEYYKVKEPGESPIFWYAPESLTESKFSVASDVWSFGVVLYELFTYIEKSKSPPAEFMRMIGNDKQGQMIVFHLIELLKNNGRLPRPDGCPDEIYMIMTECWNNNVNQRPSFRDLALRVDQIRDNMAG
# How it was run: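 pKi values derive from pIC50 via Cheng-Prusoff, with IC50 from a 4-parameter fit of percent-inhibition TR-FRET data using Tb-anti-pSTAT1 (pTyr701) detection. Compound, GST-JAK2 and GFP-STAT1 substrate were pre-incubated 1 h, then ATP started a 1 h ambient reaction (HEPES pH 7.5, 10 mM MgCl2, 1% DMSO).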
# [2] = IL-2 stimulated pSTAT5, Tall-1 T cells
# [3] = selectivity JAK3 over JAK1, difference of pKi
# [4] = IL-2 stimulated pSTAT5 in Tall-1 T cells
# [5] = selectivity: difference of pKi JAK3 and pKi JAK1
compound,measurement,setting,value
CN(C)C/C=C/C(=O)N1CC(OCc2cc(-c3ccc(O)c(F)c3)cc3[nH]ncc23)C1 [Compound 16-7],Tyk 2 (pKi),Tyk2,E (a pKi value of 7 or below (Ki of 100 nM or above))
same,Tall-1 (pIC50),[1]; [2],B (a pIC50 value between 6.7 (included) and 7.5 (IC50 between 200 nM and 32 nM))
same,JAK 3 (pKi),JAK3,A (a pKi value≥10 (Ki≤0.1 nM))
same,JAK3 (pKi)-JAK1 (pKi),JAK3; [3],A (a value of 3 or above)
same,JAK 1 (pKi),JAK1,E (a pKi value of 7 or below (Ki of 100 nM or above))
same,JAK 2 (pKi),JAK2,E (a pKi value of 7 or below (Ki of 100 nM or above))
C=CC(=O)N1CCC(C)(Nc2cc(-c3ccc(O)cc3)cc3[nH]ncc23)CC1 [Compound 7-2],Tyk 2 (pKi),Tyk2,E (a pKi value of 7 or below (Ki of 100 nM or above))
same,Tall-1 (pIC50),[1]; [2],A (a pIC50 value≥7.5 (IC50≤32 nM))
same,JAK 3 (pKi),JAK3,B (a pKi value between 9 and 10 (Ki between 1 nM and 0.1 nM))
same,JAK3 (pKi)-JAK1 (pKi),JAK3; [3],A (a value of 3 or above)
same,JAK 1 (pKi),JAK1,E (a pKi value of 7 or below (Ki of 100 nM or above))
same,JAK 2 (pKi),JAK2,D (a pKi value between 7 and 8 (Ki between 100 nM and 10 nM))
CCC1(COc2cc(-c3ccc(O)cc3)cc3[nH]ncc23)CN(C(=O)/C=C/CN(C)C)C1 [Compound 3-13],Tyk 2 (pKi),Tyk2,E (a pKi value of 7 or below (Ki of 100 nM or above))
same,Tall-1 (pIC50),[1]; [4],A (a pIC50 value≥7.5 (IC50≤32 nM))
same,JAK 3 (pKi),JAK3,B (a pKi value between 9 and 10 (Ki between 1 nM and 0.1 nM))
same,JAK3 (pKi)-JAK1 (pKi),JAK3; [5],A (a value of 3 or above)
same,JAK 1 (pKi),JAK1,E (a pKi value of 7 or below (Ki of 100 nM or above))
same,JAK 2 (pKi),JAK2,D (a pKi value between 7 and 8 (Ki between 100 nM and 10 nM))
CN(C)C/C=C/C(=O)N1CC(C)(COc2nc(-c3ccc(O)c(F)c3)cc3[nH]ncc23)C1 [Compound 3-96],Tyk 2 (pKi),Tyk2,E (a pKi value of 7 or below (Ki of 100 nM or above))
same,Tall-1 (pIC50),[1]; [4],B (a pIC50 value between 6.7 (included) and 7.5 (IC50 between 200 nM and 32 nM))
same,JAK 3 (pKi),JAK3,B (a pKi value between 9 and 10 (Ki between 1 nM and 0.1 nM))
same,JAK3 (pKi)-JAK1 (pKi),JAK3; [5],A (a value of 3 or above)
same,JAK 1 (pKi),JAK1,E (a pKi value of 7 or below (Ki of 100 nM or above))
same,JAK 2 (pKi),JAK2,E (a pKi value of 7 or below (Ki of 100 nM or above))
COC1(COc2cc(-c3ccc(O)cc3)cc3[nH]ncc23)CN(C(=O)/C=C/CN(C)C)C1 [Compound 3-32],Ki,Tyk2,> 100 nM
same,IC50,"[1]; TALL-1, IL-2 stimulated pSTAT5 in Tall-1 T cells",< 31.6 nM
same,Ki,JAK3,0.1 to 1 nM
same,JAK3 (pKi)-JAK1 (pKi),JAK3; [5],A (a value of 3 or above)
same,Ki,JAK1,> 100 nM
same,Ki,JAK2,> 100 nM
C=CC(=O)N1CC(C)(C(=O)Nc2cc(-c3ccc(O)cc3)cc3[nH]ncc23)C1 [Compound 12-68],Ki,Tyk2,> 100 nM
same,IC50,"[1]; TALL-1, IL-2 stimulated pSTAT5, Tall-1 T cells",200 to 1000 nM
same,Ki,JAK3,0.1 to 1 nM
same,JAK3 (pKi)-JAK1 (pKi),JAK3; [3],A (a value of 3 or above)
same,Ki,JAK1,> 100 nM
same,Ki,JAK2,> 100 nM
